In the experiment the target is SHP2 (Homo sapiens (Human), UniProt Q06124). The experiment can be described thus: SHP2 allosteric inhibition assay (DiFMUP prompt fluorescence). It is filed as biochemical. The conditions noted are these: 0.5 nM SHP2 activated with 0.5 μM peptide IRS1_pY1172(dPEG8)pY1222; substrate DiFMUP; 25° C.
Chain of SHP2 (Q06124 whole entry): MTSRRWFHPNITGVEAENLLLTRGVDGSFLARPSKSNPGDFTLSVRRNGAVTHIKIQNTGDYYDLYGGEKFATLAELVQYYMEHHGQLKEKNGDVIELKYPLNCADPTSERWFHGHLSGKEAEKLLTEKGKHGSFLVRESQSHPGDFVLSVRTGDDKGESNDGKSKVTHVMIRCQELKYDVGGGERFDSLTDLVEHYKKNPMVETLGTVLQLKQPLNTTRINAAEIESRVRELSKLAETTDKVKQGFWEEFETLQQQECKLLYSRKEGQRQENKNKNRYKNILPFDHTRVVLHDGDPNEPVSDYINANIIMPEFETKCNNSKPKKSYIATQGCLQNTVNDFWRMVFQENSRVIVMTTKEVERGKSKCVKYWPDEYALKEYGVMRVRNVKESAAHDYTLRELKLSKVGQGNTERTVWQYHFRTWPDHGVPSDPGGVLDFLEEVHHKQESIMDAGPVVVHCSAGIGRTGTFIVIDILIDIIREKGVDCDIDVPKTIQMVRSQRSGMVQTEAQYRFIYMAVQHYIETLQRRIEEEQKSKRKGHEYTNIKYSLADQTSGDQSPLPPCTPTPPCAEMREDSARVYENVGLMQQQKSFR

The compound `C[C@@H]1OCC2(CCN(c3nc(N)c(Sc4cccnc4OC(F)(F)F)c(=O)n3C)CC2)[C@@H]1N` [Example 22] showed an IC50 of 108 nM.
Under `C[C@H]1C[C@@H](N)C2(CCN(c3nc(N)c(-c4ccc(F)c(F)c4)c(=O)n3C)CC2)C1` [Example 127] stands 14 nM; under `C[C@@H]1CC2(CCN(c3nc(N)c(Sc4ccnc(N)c4Cl)c(=O)n3C)CC2)[C@@H](N)[C@H]1F` (single isomer, unassigned) [Example 37], 47 nM.
Regarding `Cn1c(N2CCC3(CCC[C@H]3N)CC2)nc(N)c(Sc2cccc(Cl)c2Cl)c1=O` [Example 13], the IC50 is 39 nM.
In the case of `C[C@H]1CC2(CCN(c3nc(N)c(Sc4cccnc4C(F)(F)F)c(=O)n3C)CC2)[C@@H](N)[C@@H]1C(F)(F)F` (single isomer, unassigned) [Example 64] it was 856 nM; in that of `C[C@H]1C[C@@H](N)C2(CCN(c3ncc(Sc4cc(N)ncc4Cl)c(=O)n3C)CC2)C1` [Example 110], 16 nM.
Regarding `Cn1c(N2CCC3(CC2)C[C@H](F)C[C@H]3N)nc(N)c(-c2cccc(Cl)c2Cl)c1=O` [Example 155], the midpoint of inhibition, the IC50, lay at 48 nM.
In the case of `Cn1c(N2CCC3(CC2)CC(F)(F)C[C@H]3N)nc(N)c(-c2ccccc2)c1=O` [Example 150] it was 44 nM; in that of `Cn1c(N2CCC3(CCC[C@H]3N)CC2)nc(N)c(-c2cccc(Cl)c2Cl)c1=O` [Example 192], 21 nM.
The compound `C[C@@H]1OCC2(CCN(c3nc(N)c(-c4ccc(N(C)C)cc4)c(=O)n3C)CC2)[C@@H]1N` [Example 166] came in with an IC50 of 88 nM.
The compound `Cn1c(N2CCC(C)(CN)CC2)nc(N)c(Sc2ccccc2[N+](=O)[O-])c1=O` [Example 48] gave an IC50 of 300 nM.
The compound `Cn1c(N2CCC(C)(CN)CC2)nc(N)c(Sc2cccc(C#N)c2)c1=O` [Example 10] had an IC50 of 5630 nM. Compared with the last compound, the IC50 is about 19-fold higher.
In the case of `COc1nccc(Sc2c(N)nc(N3CCC4(CC3)CO[C@@H](C)[C@H]4N)n(C)c2=O)c1Cl` [Example 23], the IC50 turned out to be 23 nM.
Regarding `Cn1c(N2CCC(C)(CN)CC2)nc(N)c(Sc2ccc(Cl)cc2Cl)c1=O` [Example 56], the midpoint of inhibition, the IC50, lay at 170 nM.
Compound `C[C@H]1C[C@@H](N)C2(CCN(c3nc(N)c(Sc4ccnc(Cl)c4C(F)(F)F)c(=O)n3C)CC2)C1` [Example 73] registered an IC50 of 71 nM.
Under `Cn1c(N2CCC(C)(CN)CC2)nc(N)c(Sc2cccc3ccccc23)c1=O` [Example 55] stands 45 nM; under `CC1(CN)CCN(c2nc(N)c(Sc3cccnc3C(F)(F)F)c(=O)[nH]2)CC1` [Example 90, 6-amino-2-(4-(aminomethyl)-4-methylpiperidin-1-yl)-5-((2-(trifluoromethyl)pyridin-3-yl)thio)pyrimidin-4(3H)-one], 66 nM.
`C[C@@H]1OCC2(CCN(c3nc(N)c(-c4cccc(F)c4)c(=O)n3C)CC2)[C@@H]1N` [Example 151] came in with an IC50 of 44 nM.
In turn, `Cn1c(N2CCC3(CC2)C[C@H](F)C[C@H]3N)nc(N)c(-c2ccccc2)c1=O` [Example 154] returned an IC50 of 46 nM.
In the case of `C[C@H]1C[C@@H](N)C2(CCN(c3nc(N)c(-c4ccc(Cl)cc4)c(=O)n3C)CC2)C1` [Example 172] it was 174 nM; in that of `Cn1c(N2CCC(C)(CN)CC2)ncc(Sc2cccc(Cl)c2Cl)c1=O` [Example 98, 2-(4-(aminomethyl)-4-methylpiperidin-1-yl)-5-((2,3-dichlorophenyl)thio)-3-methylpyrimidin-4(3H)-one], 68 nM.
Turning to `C[C@@H]1OCC2(CCN(c3nc(N)c(-c4ccc(SC(F)(F)F)cc4)c(=O)n3C)CC2)[C@@H]1N` [Example 130], it took 14 nM to reach half-maximal inhibition (IC50).
`COCCOc1ccc(-c2c(N)nc(N3CCC4(CC3)CO[C@@H](C)[C@H]4N)n(C)c2=O)cc1` [Example 170] displayed a half-inhibitory concentration (IC50) of 169 nM.
In turn, `Cn1c(N2CCC3(CC2)COC[C@H]3N)nc(N)c(-c2ccccc2)c1=O` [Example 189] displayed an IC50 of 41 nM.
In turn, `C[C@@H]1OCC2(CCN(c3ncc(Sc4ccnc(NC5CC5)c4Cl)c(=O)n3C)CC2)[C@@H]1N` [Example 107] came in with a concentration for half-maximal inhibition (IC50) of 146 nM. This IC50 lies about 3.6-fold higher than the previous one.
In the case of `Cc1ccccc1-c1c(N)nc(N2CCC3(CC2)CO[C@@H](C)[C@H]3N)n(C)c1=O` [Example 176] it was 271 nM; in that of `C[C@@H]1OCC2(CCN(c3nc(N)c(-c4ccc(Cl)c(Cl)c4)c(=O)n3C)CC2)[C@@H]1N` [Example 177], 309 nM.
The compound `Cn1c(N2CCC3(CC2)COC[C@H]3N)ncc(Sc2cccc(Cl)c2Cl)c1=O` [Example 101] came in with an IC50 of 37 nM. Against the preceding compound, the IC50 is about 8.4-fold lower.
For the compound `Cn1c(N2CCC3(CC2)C[C@@H](C(F)(F)F)C[C@H]3N)nc(N)c(-c2cccc(Cl)c2Cl)c1=O` [Example 148], 43 nM corresponded to half-maximal inhibition (IC50). This IC50 and that of the compound before are within 1.5-fold of each other.
Under `Cn1c(N2CCC3(CC2)CC(F)(F)C[C@H]3N)nc(N)c(Sc2ccc(F)cc2Cl)c1=O` [Example 82] stands 25 nM.
`C[C@@H]1OCC2(CCN(c3nc(N)c(Sc4ccc(F)cc4Cl)c(=O)n3C)CC2)[C@@H]1N` [Example 81] displayed a half-inhibitory concentration (IC50) of 15 nM.
As for `Cn1c(N2CCC(C)(CN)CC2)nc(N)c(Sc2cccc3cccnc23)c1=O` [Example 57], the IC50 came out at 279 nM.
Compound `C[C@@H]1OCC2(CCN(c3nc(N)c(-c4ccc(C5CCCCC5)cc4)c(=O)n3C)CC2)[C@@H]1N` [Example 163] returned an IC50 of 73 nM.
In the case of `Cn1c(N2CCC(C)(CN)CC2)nc(N)c(Sc2ccccc2Br)c1=O` [Example 45] it was 137 nM.
As for `COc1nccc(Sc2ccc(N3CCC4(CC3)CO[C@@H](C)[C@H]4N)[nH]c2=O)c1Cl` [Example 119], the IC50 amounted to 83 nM.
Consider `C[C@@H]1OCC2(CCN(c3nc(N)c(Sc4cccc5c4OCO5)c(=O)n3C)CC2)[C@@H]1N` [Example 78], for which half-maximal inhibition (IC50) was put at 12 nM.
`C[C@@H]1OCC2(CCN(c3nc(N)c(-c4cncc(Cl)c4)c(=O)n3C)CC2)[C@@H]1N` [Example 171] yielded an IC50 of 172 nM.
Compound `COc1nccc(Sc2c(N)nc(N3CCC4(CC3)C[C@@H](C)C[C@H]4N)n(C)c2=O)c1Cl` [Example 77] came in with an IC50 of 39 nM.
Compound `C[C@H]1C[C@@H](N)C2(CCN(c3nc(N)c(-c4ccccc4)c(=O)n3C)CC2)C1` [Example 140] showed an IC50 of 25 nM.
Take `C[C@@H]1CC2(CCN(c3nc(N)c(Sc4cccnc4C(F)(F)F)c(=O)n3C)CC2)[C@H](N)C1(F)F` [Example 33]: the IC50 was 40 nM.
`C[C@H]1C[C@@H](N)C2(CCN(c3nc(N)c(-c4cccc(Cl)c4)c(=O)n3C)CC2)C1` [Example 125] registered an IC50 of 12 nM.
The compound `Cn1c(N2CCC3(CC2)COC[C@H]3N)nc(N)c(-c2cccc(Cl)c2Cl)c1=O` [Example 190] had an IC50 of 69 nM.
`C[C@H]1C[C@@H](N)C2(CCN(c3nc(N)c(Sc4cccc(N)c4Cl)c(=O)n3C)CC2)C1` [Example 60]: the IC50 worked out at 16 nM.
For the compound `Cn1c(N2CCC(C)(CN)CC2)nc(N)c(Sc2ccc(N)cc2Cl)c1=O` [Example 53], the IC50 was found to be 609 nM.
In turn, `C[C@@H]1OCC2(CCN(c3nc(N)c(-c4ccc(C5CCOCC5)cc4)c(=O)n3C)CC2)[C@@H]1N` [Example 178] returned an IC50 of 412 nM. This IC50 and that of the compound before are within 1.5-fold of each other.
As to `C[C@H]1C[C@@H](N)C2(CCN(c3ncc(Sc4cccnc4C(F)(F)F)c(=O)n3C)CC2)C1` [Example 114], the IC50 was found to be 50 nM.
Take `Cn1c(N2CCC(C)(CN)CC2)nc(N)c(Sc2ccccc2O)c1=O` [Example 52]: the IC50 turned out to be 721 nM.
The compound `C[C@@H]1OCC2(CCN(c3nc(N)c(-c4ccc(C5CC5)cc4)c(=O)n3C)CC2)[C@@H]1N` [Example 160] returned an IC50 of 63 nM.
Consider `C[C@@H]1OCC2(CCN(c3nc(N)c(-c4cccc(Cl)c4Cl)c(=O)n3C)CC2)[C@@H]1N` [Example 132], for which the IC50 turned out to be 16 nM.
In the case of `C[C@@H]1OCC2(CCN(c3nc(N)c(-c4ccc(Cl)c(F)c4)c(=O)n3C)CC2)[C@@H]1N` [Example 141] it was 26 nM.
With `C[C@@H]1OCC2(CCN(c3nc(N)c(-c4ccc(OC5CC5)cc4)c(=O)n3C)CC2)[C@@H]1N` [Example 139], the IC50 was 25 nM.
The compound `Cc1nc(N2CCC3(CC2)CO[C@@H](C)[C@H]3N)n(C)c(=O)c1Sc1cccnc1C(F)(F)F` [Example 122] had an IC50 of 68 nM. This IC50 is about 2.7-fold higher than that of the compound before.
`C[C@@H]1OCC2(CCN(c3nc(N)c(-c4ccccc4)c(=O)n3C)CC2)[C@@H]1N` [Example 138]: the midpoint of inhibition, the IC50, lay at 24 nM. This IC50 is about 2.8-fold lower than that of the compound before.
As for `Cc1nc(N2CCC3(CC2)CO[C@@H](C)[C@H]3N)n(C)c(=O)c1Sc1ccnc(N)c1Cl` [Example 121, 5-((2-amino-3-chloropyridin-4-yl)thio)-2-((3S,4S)-4-amino-3-methyl-2-oxa-8-azaspiro[4.5]decan-8-yl)-3,6-dimethylpyrimidin-4(3H)-one], 60 nM corresponded to half-maximal inhibition (IC50).
Under `Cn1c(N2CCC(C)(CN)CC2)nc(N)c(Sc2ccnc(N)c2Cl)c1=O` [Example 4] stands 53 nM.
`Cn1c(N2CCC(C)(CN)CC2)nc(N)c(Sc2ccccc2Cl)c1=O` [Example 6] yielded an IC50 of 286 nM.
On to `COc1ccc(-c2c(N)nc(N3CCC4(CC3)CO[C@@H](C)[C@H]4N)n(C)c2=O)cc1C` [Example 173], for which the IC50 was 175 nM. Against the preceding compound, the IC50 is about 1.6-fold lower.
`C[C@H]1C[C@@H](N)C2(CCN(c3nc(N)c(Sc4cc(N)ccc4Cl)c(=O)n3C)CC2)C1` [Example 69] returned an IC50 of 10 nM.
On to `C[C@@H]1CC2(CCN(c3nc(N)c(-c4ccccc4)c(=O)n3C)CC2)[C@H](N)[C@H]1F` [Example 188], for which half-maximal inhibition (IC50) required 15 nM.
Consider `Cn1c(N2CCC(C)(CN)CC2)nc(N)c(Sc2ccccc2C(F)(F)F)c1=O` [Example 49], for which the IC50 came out at 74 nM.
Under `C[C@@H]1OCC2(CCN(c3nc(N)c(-c4ccc(N5CCOCC5)cc4)c(=O)n3C)CC2)[C@@H]1N` [Example 185] stands 2120 nM; under `Cn1c(N2CCC(C)(CN)CC2)ncc(Sc2ccccc2Cl)c1=O` [Example 99], 375 nM.
Consider `C[C@@H]1OCC2(CCN(c3nc(N)c(-c4cc(Cl)cc(Cl)c4)c(=O)n3C)CC2)[C@@H]1N` [Example 179], for which half-maximal inhibition (IC50) was put at 421 nM.
`COc1ccccc1-c1c(N)nc(N2CCC3(CC2)CO[C@@H](C)[C@H]3N)n(C)c1=O` [Example 181] gave an IC50 of 840 nM.
As to `C[C@@H]1OCC2(CCN(c3nc(N)c(-c4ccc(OC(F)F)cc4)c(=O)n3C)CC2)[C@@H]1N` [Example 145], the half-inhibitory concentration (IC50) was found to be 34 nM.

The record behind these values is patent US10308660B2, “Compounds and compositions for inhibiting the activity of SHP2” (Novartis AG, priority 2015, dated 2019).
